Reference: US7501418B2, “Fused heterocyclic isoxazoline derivatives and their use as anti-depressants” (Janssen Pharmaceutica, N.V., priority 2002, dated 2009)
Counter-ions that a name gives are not always drawn. Like-named read-outs stand apart in the source and are kept apart here.

Key:
hα2A receptor = target: T1, hα2A receptor (Homo sapiens, UniProt P08913); assay: Radioligand binding experiment for α2A-adrenergic receptor ([3H]-raulwolscine); conditions: CHO cell membranes with human α2A receptor, [3H]raulwolscine 1 nM
T1 construct: expressed in transfected cells
T1 sequence (P08913 1-465): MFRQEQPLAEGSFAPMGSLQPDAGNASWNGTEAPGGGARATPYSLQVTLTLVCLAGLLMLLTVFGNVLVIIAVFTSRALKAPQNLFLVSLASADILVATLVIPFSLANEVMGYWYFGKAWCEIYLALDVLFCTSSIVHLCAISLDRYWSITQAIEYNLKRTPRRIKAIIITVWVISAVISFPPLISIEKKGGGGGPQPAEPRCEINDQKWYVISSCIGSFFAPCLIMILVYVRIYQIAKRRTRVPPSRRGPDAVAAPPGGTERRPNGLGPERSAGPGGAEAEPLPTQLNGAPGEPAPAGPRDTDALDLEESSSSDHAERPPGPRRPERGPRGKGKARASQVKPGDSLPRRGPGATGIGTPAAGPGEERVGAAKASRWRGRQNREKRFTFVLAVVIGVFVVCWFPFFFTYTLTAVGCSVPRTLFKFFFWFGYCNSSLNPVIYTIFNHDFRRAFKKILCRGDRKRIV
Procedure: (§1) In general, a low concentration of a radioligand with a high binding affinity for a particular receptor or transporter is incubated with a sample of a tissue preparation enriched in a particular receptor or transporter or with a preparation of cells expressing cloned human receptors in a buffered medium. During the incubation, the radioligand binds to the receptor or transporter. When equilibrium of binding is reached, the receptor bound radioactivity is separated from the non-bound radioactivity, and the receptor- or transporter-bound activity is counted. The interaction of the test compounds with the receptor is assessed in competition binding experiments. Various concentrations of the test compound are added to the incubation mixture containing the receptor- or transporter preparation and the radioligand. The test compound in proportion to its binding affinity and its concentration inhibits binding of the radioligand. The radioligand used for hα2A, hα2B and hα2C receptor binding was [^3H]-raulwolscine and for the h5-HT transporter was [^3H]paroxetine. CHO cells, stabile transfected with human adrenergic-α2A-, -α2B or α2C receptor cDNA, were cultured in Dulbecco's Modified Eagle's Medium (DMEM)/Nutrient mixture Ham's F12 (ratio 1:1)(Gibco, Gent-Belgium) supplemented with 10% heat inactivated fetal calf serum (Life Technologies, Merelbeke-Belgium) and antibiotics (100 IU/ml penicillin G, 100 μg/ml streptomycin sulphate, 110 μg/ml pyruvic acid and 100 μg/ml L-glutamine). One day before collection, cells were induced with 5 mM sodiumbutyrate. Upon 80-90% of confluence, cells were scraped in phosphate buffered saline without Ca^2+ and Mg^2+ and collected by centrifugation at 1500×g for 10 min. The cells were homogenised in Tris-HCl 50 mM using an Ultraturrax homogenizer and centrifuged for 10 min at 23,500×g. The pellet was washed once by resuspension and rehomogenization and the final pellet was resuspended in Tris-HCl, divided in 1 ml aliquots and stored at −70° C. Membranes were thawed and re-homogenized in incubation buffer (glycylglycine 25 mM, pH 8.0). In a total volume of 500 μl, 2-10 μg protein was incubated with [^3H]raulwolscine (NET-722) (New England Nuclear, USA) (1 nM final concentration) with or without competitor for 60 min at 25° C. followed by rapid filtration over GF/B filter using a Filtermate196 harvester (Packard, Meriden, Conn.). Filters were rinsed extensively with ice-cold rinsing buffer (Tris-HCl 50 mM pH 7.4). Filter-bound radioactivity was determined by scintillation counting in a Topcount (Packard, Meriden, Conn.) and results were expressed as counts per minute (cpm). Non-specific binding was determined in the presence of 1 μM oxymetazoline for hα2A- and hα2B receptors and 1 μM spiroxatrine for hα2C receptors. Data from assays in the presence of compound were calculated as a percentage of total binding measured in the absence of test compound. Inhibition curves, plotting percent of total binding versus the log value of the concentration of the test compound, were automatically generated, and sigmoidal inhibition curves were fitted using non-linear regression. The pIC50 values of test compounds were derived from individual curves.

hα2C receptor = target: T2, hα2C receptor (Homo sapiens, UniProt P18825); assay: Radioligand binding experiment for α2C-adrenergic receptor ([3H]-raulwolscine)
T2 construct: expressed in transfected cells
T2 sequence (P18825 1-462): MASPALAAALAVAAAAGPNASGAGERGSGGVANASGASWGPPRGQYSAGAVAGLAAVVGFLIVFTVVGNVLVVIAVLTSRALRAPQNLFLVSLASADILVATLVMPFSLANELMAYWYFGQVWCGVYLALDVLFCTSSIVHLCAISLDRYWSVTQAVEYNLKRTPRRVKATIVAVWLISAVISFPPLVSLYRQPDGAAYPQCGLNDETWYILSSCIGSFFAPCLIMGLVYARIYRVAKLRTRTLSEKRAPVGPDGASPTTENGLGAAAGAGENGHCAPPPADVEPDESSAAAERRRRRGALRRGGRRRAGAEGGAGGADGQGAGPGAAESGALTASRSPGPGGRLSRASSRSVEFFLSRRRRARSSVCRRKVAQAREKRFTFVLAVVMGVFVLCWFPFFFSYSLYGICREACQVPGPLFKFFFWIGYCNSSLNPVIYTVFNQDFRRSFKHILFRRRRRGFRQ
Procedure: as §1

h5-HT transporter = target: T3, h5-HT transporter (Homo sapiens, UniProt P31645); assay: Radioligand binding experiment for 5-HT transporter ([3H]paroxetine); conditions: human platelet membranes, [3H]paroxetine 0.5 nM
T3 construct: Human platelet membranes (Oceanix Biosciences Corporation, Hanover, Md., USA) were thawed; tissue Oceanix Biosciences Corporation, Hanover, Md., USA; host or cells: human platelet membranes
Procedure: In general, a low concentration of a radioligand with a high binding affinity for a particular receptor or transporter is incubated with a sample of a tissue preparation enriched in a particular receptor or transporter or with a preparation of cells expressing cloned human receptors in a buffered medium. During the incubation, the radioligand binds to the receptor or transporter. When equilibrium of binding is reached, the receptor bound radioactivity is separated from the non-bound radioactivity, and the receptor- or transporter-bound activity is counted. The interaction of the test compounds with the receptor is assessed in competition binding experiments. Various concentrations of the test compound are added to the incubation mixture containing the receptor- or transporter preparation and the radioligand. The test compound in proportion to its binding affinity and its concentration inhibits binding of the radioligand. The radioligand used for hα2A, hα2B and hα2C receptor binding was [^3H]-raulwolscine and for the h5-HT transporter was [^3H]paroxetine. Human platelet membranes (Oceanix Biosciences Corporation, Hanover, Md., USA) were thawed, diluted in buffer (Tris-HCl 50 mM, 120 mM NaCl and 5 mM KCl) and quickly (max 3 s) homogenised with an Ultraturrax homogenizer. In a total volume of 250 μL, 50-100 μg protein was incubated with [^3H]paroxetine (NET-869) (New England Nuclear, USA) (0.5 nM final concentration) with or without competitor for 60 min at 25 ° C. Incubation was stopped by rapid filtration of the incubation mixture over GF/B filters, pre-wetted with 0.1% polyethyleneamine, using a Filtermate196 harvester (Packard, Meriden, Conn.). Filters were rinsed extensively with ice-cold buffer and radioactivity on the filters was counted in a Topcount liquid scintillation counter (Packard, Meriden, Conn.). Data were expressed as cpm. Imipramine (at 1 μM final concentration) was used to determine the non-specific binding. Data from assays in the presence of compound were calculated as a percentage of total binding measured in the absence of test compound. Inhibition curves, plotting percent of total binding versus the log value of the concentration of the test compound, were automatically generated, and sigmoidal inhibition curves were fitted using non-linear regression. The pIC50 values of test compounds were derived from individual curves.

hα2B receptor = target: T4, hα2B receptor (Homo sapiens, UniProt P18089); assay: Radioligand binding experiment for α2B-adrenergic receptor ([3H]-raulwolscine)
T4 construct: expressed in transfected cells
T4 sequence (P18089 1-450): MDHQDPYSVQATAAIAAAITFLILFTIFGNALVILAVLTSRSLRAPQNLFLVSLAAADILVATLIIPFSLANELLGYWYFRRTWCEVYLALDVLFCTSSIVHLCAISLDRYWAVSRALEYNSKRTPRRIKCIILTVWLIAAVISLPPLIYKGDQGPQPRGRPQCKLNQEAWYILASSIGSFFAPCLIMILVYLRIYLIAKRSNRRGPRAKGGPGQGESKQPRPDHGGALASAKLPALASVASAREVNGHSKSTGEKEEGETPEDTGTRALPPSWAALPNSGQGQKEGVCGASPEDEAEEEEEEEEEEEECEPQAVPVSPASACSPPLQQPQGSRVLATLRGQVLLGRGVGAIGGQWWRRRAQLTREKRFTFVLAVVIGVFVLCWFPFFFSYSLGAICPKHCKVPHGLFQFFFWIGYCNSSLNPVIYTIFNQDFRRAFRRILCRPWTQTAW
Procedure: as §1

[1] = CHO cell membranes with human α2C receptor, [3H]raulwolscine 1 nM
[2] = read-out: hα2A (pIC50) (converted)
[3] = CHO cell membranes with human α2C receptor, [3H]raulwolscine 1 nM, read-out: hα2C (pIC50) (converted)
[4] = read-out: 5-HTT (pIC50) (converted)

T3 sequence (P31645 whole entry): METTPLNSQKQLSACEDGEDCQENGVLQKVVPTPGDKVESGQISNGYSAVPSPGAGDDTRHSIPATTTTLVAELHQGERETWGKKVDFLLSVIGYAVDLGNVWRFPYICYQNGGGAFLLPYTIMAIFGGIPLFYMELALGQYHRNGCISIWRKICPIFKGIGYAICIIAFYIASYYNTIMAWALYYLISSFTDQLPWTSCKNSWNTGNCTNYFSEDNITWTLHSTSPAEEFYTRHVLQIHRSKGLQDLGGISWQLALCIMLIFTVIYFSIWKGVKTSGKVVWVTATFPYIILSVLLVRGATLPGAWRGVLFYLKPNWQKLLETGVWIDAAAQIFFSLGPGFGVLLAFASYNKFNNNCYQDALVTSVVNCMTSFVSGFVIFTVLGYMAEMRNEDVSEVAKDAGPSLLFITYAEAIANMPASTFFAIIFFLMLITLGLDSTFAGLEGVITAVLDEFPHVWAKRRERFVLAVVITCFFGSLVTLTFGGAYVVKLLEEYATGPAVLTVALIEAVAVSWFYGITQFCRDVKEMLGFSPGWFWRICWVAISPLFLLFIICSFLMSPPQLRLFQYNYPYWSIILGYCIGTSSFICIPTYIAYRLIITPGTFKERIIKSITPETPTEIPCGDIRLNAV

| SMILES | hα2A (pIC50) (hα2A receptor) | hα2C (pIC50) (hα2C receptor; [1]) | 5-HTT (pIC50) (h5-HT transporter) | further results |
| --- | --- | --- | --- | --- |
| C/C(=C\c1ccccc1)CN1CCN(CC2ON=C3c4cc5ccn(C(=O)C6CC6)c5cc4OCC32)CC1 (racemic) [Compound 12] | 8.2 | 8.5 | 7.7 |  |
| COC(=O)Cn1ccc2cc3c(cc21)OCC1C3=NOC1CN1CCN(C/C(C)=C/c2ccccc2)CC1 (stereo not shown) [Compound 10, {3-[4-(2-methyl-3-phenyl-allyl)-piperazin-1-ylmethyl]-3a,4-dihydro-3H-2,5-dioxa-1,7-diaza-dicyclopenta[a,g]naphthlen-7-yl}-acetic acid methyl ester] |  |  |  | IC50 (hα2A receptor; hα2A (pIC50)): 12.6 nM; IC50 (hα2B receptor): 5.01 nM; IC50 (hα2C receptor): 0.794 nM; IC50 (h5-HT transporter; 5-HTT (pIC50)): 2 nM |
| C/C(=C\c1ccccc1)CN1CCN(CC2ON=C3c4cccnc4OCC32)CC1 (stereo not shown) [Compound 22, 3-[4-(2-methyl-3-phenyl-allyl)-piperazin-1-ylmethyl]-3a,4-dihydro-3H-2,5-dioxa-1,6-diaza-cyclopenta[a]naphthalene oxalate salt] |  |  |  | IC50 (hα2A receptor; [2]): 631 nM; IC50 (hα2C receptor; [3]): 79.4 nM; IC50 (h5-HT transporter; [4]): 6310 nM |
| COC(=O)n1ccc2cc3c(cc21)OCC1C3=NOC1CN1CCN(C/C(C)=C/c2ccccc2)CC1 (racemic) [Compound 13] | 8.4 | 8.4 | 7.9 |  |
| COCC(=O)n1ccc2cc3c(cc21)OCC1C3=NOC1CN1CCN(C/C(C)=C/c2ccccc2)CC1 (racemic) [Compound 14] | 8.5 | 8.9 | 8.4 |  |
| C/C(=C\c1ccccc1)CN1CCN(CC2ON=C3c4cc5ccn(C)c5cc4OCC32)CC1 (stereo not shown) [Compound 7, 7-methyl-3-[4-(2-methyl-3-phenyl-allyl)-piperazin-1-ylmethyl]-3a,4-dihydro-3H,7H-2,5-dioxa-1,7-diaza-dicyclopenta[a,g]naphthlene] |  |  |  | IC50 (hα2A receptor; hα2A (pIC50)): 3.16 nM; IC50 (hα2C receptor): 0.794 nM; IC50 (h5-HT transporter; 5-HTT (pIC50)): 5.01 nM |
| C/C(=C\c1cccc(F)c1)CN1CCN(CC2ON=C3c4ccncc4OCC32)CC1 (racemic) [Compound 20] | 9.2 | 8.8 | 7.6 |  |
| Clc1ccc(CN2CCN(CC3ON=C4c5cc6cc[nH]c6cc5OCC43)CC2)cc1 (racemic) [Compound 5] | 6.7 | 7.4 | 7.8 |  |
| CC(=O)n1ccc2cc3c(cc21)OCC1C3=NOC1CN1CCN(C/C(C)=C/c2ccccc2)CC1 (stereo not shown) [Compound 11, 1-{3-[4-(2-methyl-3-phenyl-allyl)-piperazin-1-ylmethyl]-3a,4-dihydro-3H-2,5-dioxa-1,7-diaza-dicyclopenta[a,g]naphthalen7-yl}-ethanone] |  |  |  | IC50 (hα2A receptor; hα2A (pIC50)): 2.51 nM; IC50 (hα2C receptor): 1 nM; IC50 (h5-HT transporter; 5-HTT (pIC50)): 6.31 nM |
| c1ccc2cc(CN3CCN(CC4ON=C5c6ccncc6OCC54)CC3)ccc2c1 (stereo not shown) [Compound 19, 3-(4-naphthalen-2-ylmethyl-piperazin-1-ylmethyl)-3a,4-dihydro-3H-2,5-dioxa-1,7-diaza-cyclopenta[a]naphthalene oxalate salt (1/1)] |  |  |  | IC50 (hα2A receptor; [2]): 10 nM; IC50 (hα2C receptor; [3]): 39.8 nM; IC50 (h5-HT transporter; [4]): 100 nM |
| CC(=CCN1CCN(CC2ON=C3c4cc5cc[nH]c5cc4OCC32)CC1)c1ccccc1 (racemic) [Compound 6] | 8.1 | 8.6 | 8.3 |  |
| C/C(=C\c1ccc(F)cc1)CN1CCN(CC2ON=C3c4ccncc4OCC32)CC1.O=C(O)C(=O)O (racemic) [Compound 21] | 8.2 | 7.8 | 7.1 |  |
